Organism: Rattus norvegicus
Test: DrugMatrix - Regimen: Daily Repeat
Format: toxicity, organism-based, Sprague-Dawley
Design: regimen Daily Repeat, gender Male, age 6-8 weeks
Details: in vivo, po, route oral GAVAGE, vehicle .5 % CMC; for BASOPHIL / EOSINOPHIL / ERYTHROCYTE COUNT / HEMATOCRIT / HEMOGLOBIN / LEUKOCYTE COUNT / LYMPHOCYTE / MEAN CORPUSCULAR HEMOGLOBIN / MEAN CORPUSCULAR HEMOGLOBIN CONCENTRATION / MEAN CORPUSCULAR VOLUME / MONOCYTE / NEUTROPHIL / PLATELET COUNT: tissue Blood; for ALANINE AMINOTRANSFERASE / ALBUMIN / ALKALINE PHOSPHATASE / ASPARTATE AMINOTRANSFERASE / BLOOD UREA NITROGEN / CHLORIDE / CHOLESTEROL / CREATINE PHOSPHOKINASE / CREATININE / GLUCOSE / PHOSPHORUS / POTASSIUM / SODIUM / TOTAL BILIRUBIN / TOTAL PROTEIN: tissue Plasma
[1] = 0 mg/kg, 72 h, dose level Control, time 3 day
[2] = 0 mg/kg, 120 h, dose level Control, time 5 day
[3] = 94 mg/kg, 72 h, dose level High, time 3 day
[4] = 94 mg/kg, 120 h, dose level High, time 5 day
[5] = […], 72 h, dose 9.4 mg/Kg, dose level Low, time 3 day
[6] = […], 120 h, dose 9.4 mg/Kg, dose level Low, time 5 day

O=C(CCCN1CC=C(n2c(=O)[nH]c3ccccc32)CC1)c1ccc(F)cc1 [DROPERIDOL]
BASOPHIL [1]: 1.52% | EOSINOPHIL [1]: 0.98% | ERYTHROCYTE COUNT [1]: 6.96 x10E6/uL | HEMATOCRIT [1]: 44.65% | HEMOGLOBIN [1]: 13.62 G/DL | LEUKOCYTE COUNT [1]: 9.83 x10E3/uL | LYMPHOCYTE [1]: 76.48% | MEAN CORPUSCULAR HEMOGLOBIN [1]: 19.57 pg | MEAN CORPUSCULAR HEMOGLOBIN CONCENTRATION [1]: 30.47 G/DL | MEAN CORPUSCULAR VOLUME [1]: 64.22 fL | MONOCYTE [1]: 2.13% | NEUTROPHIL [1]: 18.6% | PLATELET COUNT [1]: 1217.17 x10E3/uL | ALANINE AMINOTRANSFERASE [1]: 41 u/L | ALBUMIN [1]: 3.77 G/DL | ALKALINE PHOSPHATASE [1]: 411.83 u/L | ASPARTATE AMINOTRANSFERASE [1]: 62.83 u/L | BLOOD UREA NITROGEN [1]: 15.17 mg/dL | CHLORIDE [1]: 104.33 MEQ/L | CHOLESTEROL [1]: 71.17 mg/dL | CREATINE PHOSPHOKINASE [1]: 123.5 u/L | CREATININE [1]: 0.55 mg/dL | GLUCOSE [1]: 182.67 mg/dL | PHOSPHORUS [1]: 11.23 mg/dL | POTASSIUM [1]: 7.03 MEQ/L | SODIUM [1]: 148 MEQ/L | TOTAL BILIRUBIN [1]: 0.57 mg/dL | TOTAL PROTEIN [1]: 6.85 G/DL | BASOPHIL [2]: 1.35% | EOSINOPHIL [2]: 0.43% | ERYTHROCYTE COUNT [2]: 6.96 x10E6/uL | HEMATOCRIT [2]: 44.35% | HEMOGLOBIN [2]: 13.98 G/DL | LEUKOCYTE COUNT [2]: 9.45 x10E3/uL | LYMPHOCYTE [2]: 80.83% | MEAN CORPUSCULAR HEMOGLOBIN [2]: 20.1 pg | MEAN CORPUSCULAR HEMOGLOBIN CONCENTRATION [2]: 31.52 G/DL | MEAN CORPUSCULAR VOLUME [2]: 63.72 fL | MONOCYTE [2]: 2.37% | NEUTROPHIL [2]: 14.05% | PLATELET COUNT [2]: 1298 x10E3/uL | ALANINE AMINOTRANSFERASE [2]: 42.17 u/L | ALBUMIN [2]: 3.77 G/DL | ALKALINE PHOSPHATASE [2]: 419 u/L | ASPARTATE AMINOTRANSFERASE [2]: 66.67 u/L | BLOOD UREA NITROGEN [2]: 16.67 mg/dL | CHLORIDE [2]: 103.17 MEQ/L | CHOLESTEROL [2]: 66.33 mg/dL | CREATINE PHOSPHOKINASE [2]: 148.33 u/L | CREATININE [2]: 0.58 mg/dL | GLUCOSE [2]: 196.83 mg/dL | PHOSPHORUS [2]: 11.8 mg/dL | POTASSIUM [2]: 6.47 MEQ/L | SODIUM [2]: 148.33 MEQ/L | TOTAL BILIRUBIN [2]: 0.53 mg/dL | TOTAL PROTEIN [2]: 6.77 G/DL | BASOPHIL [3]: 2.03% | EOSINOPHIL [3]: 0.53% | ERYTHROCYTE COUNT [3]: 7.81 x10E6/uL | HEMATOCRIT [3]: 49.37% | HEMOGLOBIN [3]: 15.57 G/DL | LEUKOCYTE COUNT [3]: 13.33 x10E3/uL | LYMPHOCYTE [3]: 87.57% | MEAN CORPUSCULAR HEMOGLOBIN [3]: 20.1 pg | MEAN CORPUSCULAR HEMOGLOBIN CONCENTRATION [3]: 31.57 G/DL | MEAN CORPUSCULAR VOLUME [3]: 63.57 fL | MONOCYTE [3]: 2.1% | NEUTROPHIL [3]: 7% | PLATELET COUNT [3]: 1484.33 x10E3/uL | ALANINE AMINOTRANSFERASE [3]: 35.67 u/L | ALBUMIN [3]: 4.03 G/DL | ALKALINE PHOSPHATASE [3]: 335 u/L | ASPARTATE AMINOTRANSFERASE [3]: 61.67 u/L | BLOOD UREA NITROGEN [3]: 21.67 mg/dL | CHLORIDE [3]: 102.33 MEQ/L | CHOLESTEROL [3]: 79.67 mg/dL | CREATINE PHOSPHOKINASE [3]: 112.67 u/L | CREATININE [3]: 0.67 mg/dL | GLUCOSE [3]: 149 mg/dL | PHOSPHORUS [3]: 11.77 mg/dL | POTASSIUM [3]: 7.13 MEQ/L | SODIUM [3]: 148 MEQ/L | TOTAL BILIRUBIN [3]: 0.6 mg/dL | TOTAL PROTEIN [3]: 7.1 G/DL | BASOPHIL [4]: 1.4% | EOSINOPHIL [4]: 0.5% | ERYTHROCYTE COUNT [4]: 8.34 x10E6/uL | HEMATOCRIT [4]: 50.33% | HEMOGLOBIN [4]: 16.1 G/DL | LEUKOCYTE COUNT [4]: 13.23 x10E3/uL | LYMPHOCYTE [4]: 84.5% | MEAN CORPUSCULAR HEMOGLOBIN [4]: 19.37 pg | MEAN CORPUSCULAR HEMOGLOBIN CONCENTRATION [4]: 32.03 G/DL | MEAN CORPUSCULAR VOLUME [4]: 60.43 fL | MONOCYTE [4]: 2.13% | NEUTROPHIL [4]: 10.53% | PLATELET COUNT [4]: 1440.33 x10E3/uL | ALANINE AMINOTRANSFERASE [4]: 53 u/L | ALBUMIN [4]: 3.87 G/DL | ALKALINE PHOSPHATASE [4]: 248 u/L | ASPARTATE AMINOTRANSFERASE [4]: 83 u/L | BLOOD UREA NITROGEN [4]: 23.33 mg/dL | CHLORIDE [4]: 103 MEQ/L | CHOLESTEROL [4]: 68 mg/dL | CREATINE PHOSPHOKINASE [4]: 108.67 u/L | CREATININE [4]: 0.67 mg/dL | GLUCOSE [4]: 160.67 mg/dL | PHOSPHORUS [4]: 12.3 mg/dL | POTASSIUM [4]: 7.17 MEQ/L | SODIUM [4]: 149 MEQ/L | TOTAL BILIRUBIN [4]: 0.67 mg/dL | TOTAL PROTEIN [4]: 6.93 G/DL | BASOPHIL [5]: 1.77% | EOSINOPHIL [5]: 0.47% | ERYTHROCYTE COUNT [5]: 7.08 x10E6/uL | HEMATOCRIT [5]: 45.83% | HEMOGLOBIN [5]: 14.3 G/DL | LEUKOCYTE COUNT [5]: 15.23 x10E3/uL | LYMPHOCYTE [5]: 83.7% | MEAN CORPUSCULAR HEMOGLOBIN [5]: 20.13 pg | MEAN CORPUSCULAR HEMOGLOBIN CONCENTRATION [5]: 31.1 G/DL | MEAN CORPUSCULAR VOLUME [5]: 64.77 fL | MONOCYTE [5]: 1.6% | NEUTROPHIL [5]: 11.93% | PLATELET COUNT [5]: 1499.67 x10E3/uL | ALANINE AMINOTRANSFERASE [5]: 36.67 u/L | ALBUMIN [5]: 3.67 G/DL | ALKALINE PHOSPHATASE [5]: 351.67 u/L | ASPARTATE AMINOTRANSFERASE [5]: 62.33 u/L | BLOOD UREA NITROGEN [5]: 14 mg/dL | CHLORIDE [5]: 103.67 MEQ/L | CHOLESTEROL [5]: 70.33 mg/dL | CREATINE PHOSPHOKINASE [5]: 125.33 u/L | CREATININE [5]: 0.6 mg/dL | GLUCOSE [5]: 162.33 mg/dL | PHOSPHORUS [5]: 12.83 mg/dL | POTASSIUM [5]: 7.2 MEQ/L | SODIUM [5]: 147.67 MEQ/L | TOTAL BILIRUBIN [5]: 0.5 mg/dL | TOTAL PROTEIN [5]: 6.57 G/DL | BASOPHIL [6]: 2.17% | EOSINOPHIL [6]: 0.4% | ERYTHROCYTE COUNT [6]: 6.89 x10E6/uL | HEMATOCRIT [6]: 44.3% | HEMOGLOBIN [6]: 14.03 G/DL | LEUKOCYTE COUNT [6]: 11 x10E3/uL | LYMPHOCYTE [6]: 83.27% | MEAN CORPUSCULAR HEMOGLOBIN [6]: 20.4 pg | MEAN CORPUSCULAR HEMOGLOBIN CONCENTRATION [6]: 31.7 G/DL | MEAN CORPUSCULAR VOLUME [6]: 64.43 fL | MONOCYTE [6]: 2.07% | NEUTROPHIL [6]: 11.2% | PLATELET COUNT [6]: 1298.67 x10E3/uL | ALANINE AMINOTRANSFERASE [6]: 37.67 u/L | ALBUMIN [6]: 3.63 G/DL | ALKALINE PHOSPHATASE [6]: 359 u/L | ASPARTATE AMINOTRANSFERASE [6]: 62.33 u/L | BLOOD UREA NITROGEN [6]: 13.33 mg/dL | CHLORIDE [6]: 101.33 MEQ/L | CHOLESTEROL [6]: 65 mg/dL | CREATINE PHOSPHOKINASE [6]: 109 u/L | CREATININE [6]: 0.5 mg/dL | GLUCOSE [6]: 191 mg/dL | PHOSPHORUS [6]: 12.2 mg/dL | POTASSIUM [6]: 7.17 MEQ/L | SODIUM [6]: 147.33 MEQ/L | TOTAL BILIRUBIN [6]: 0.3 mg/dL | TOTAL PROTEIN [6]: 6.4 G/DL

Source: ChEMBL document CHEMBL3885881, “DrugMatrix”
